For 17 molecules, IC50 results are on record in patent publication US8957074B2 (Novartis AG, priority 2010, dated 2015).

The IC50 is the concentration that gives 50% inhibition.

One assay addresses CDK4/cyclin D1 (Homo sapiens (Human), UniProt P11802). The experiment in a line: CDK4/cyclin D1 enzymatic activity assay (TR-FRET, phosphorylation of pRb at Ser780). In kind it is biochemical. In short, it runs like this: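 Phosphorylation at pRb Ser780, detected by TR-FRET, gave IC50s and kinetics. Enzyme: baculovirus/Sf21-expressed human CDK4/cyclin D1. ATP at 3 μM initiated the reaction; EDTA (pH 8.0) stopped it after 60 min at 22° C.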
A general note: TR-FRET usually uses a lanthanide donor and a delayed reading to cut background.

The test system of assay [1] is phosphorylation of pRb at the Ser780 site in JeKo-1 mantle cell lymphoma cells. Nature of the assay: CDK4 cellular assay: ELISA of pRb phosphorylation at Ser780 in JeKo-1 cells. The format is cell-based. In general terms: An ELISA detects its analyte on a solid surface through an enzyme-linked reagent.
Another assay deals with CDK1/cyclin B (Homo sapiens (Human), UniProt P06493). Nature of the assay: CDK1/cyclin B enzymatic activity assay (IMAP-FP). In kind it is biochemical. The text has this:
CDK1/Cyclin B Enzymatic Activity Assay
A 384-well microtiter IMAP-FP™ (Molecular Devices Trade Mark Technology) endpoint assay was used for CDK1/cyclin B kinase activity measurements. The same assay was used for IC50 determination of small molecule inhibitors.

Setting [2] is: 0.3 nM CDK4/cyclin D1, 150 nM biotin-pRb (773-924), 3 μM ATP, 60 min at 22° C., read-out: Biochemical CDK4 enzyme IC50.
Where [3] appears, read: Homo sapiens, JeKo-1 cells, p-pRb % inhibition adjusted with total pRb levels, read-out: Normalized cellular ppRb inhibition IC50.
The mark [4] stands for this setting: Homo sapiens, JeKo-1 cells, p-pRb Ser780 ELISA, non-normalized, read-out: Cellular ppRb inhibition IC50.
The mark [5] stands for this setting: […] CDK1/cyclin B, 100 nM Tamra Histone-H1 peptide, 20 μM ATP, 120 min at room temperature, read-out: Biochemical CDK1 enzyme IC50.
Setting [6] is: Homo sapiens, JeKo-1, JeKo-1 cells, p-pRb % inhibition adjusted with total pRb levels, read-out: Normalized cellular ppRb inhibition IC50.
[7] abbreviates: Homo sapiens, JeKo-1, JeKo-1 cells, p-pRb Ser780 ELISA, non-normalized, read-out: Cellular ppRb inhibition IC50.
[8] abbreviates: 0.25 nM CDK1/cyclin B, 100 nM Tamra Histone-H1 peptide, 20 μM ATP, 120 min at room temperature, read-out: Biochemical CDK1 enzyme IC50.

Read-outs that look alike come from different tables or passages of the source.

CDK4/cyclin D1, sequence (P11802 whole entry): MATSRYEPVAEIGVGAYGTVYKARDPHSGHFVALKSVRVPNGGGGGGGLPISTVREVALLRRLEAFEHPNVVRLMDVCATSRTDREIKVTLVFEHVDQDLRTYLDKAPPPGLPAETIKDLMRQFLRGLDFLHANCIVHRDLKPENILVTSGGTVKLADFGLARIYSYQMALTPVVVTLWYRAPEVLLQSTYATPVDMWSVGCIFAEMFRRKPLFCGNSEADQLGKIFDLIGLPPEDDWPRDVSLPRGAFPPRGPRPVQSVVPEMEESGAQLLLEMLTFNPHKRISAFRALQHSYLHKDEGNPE
CDK4/cyclin D1, sequence (P24385 whole entry partner): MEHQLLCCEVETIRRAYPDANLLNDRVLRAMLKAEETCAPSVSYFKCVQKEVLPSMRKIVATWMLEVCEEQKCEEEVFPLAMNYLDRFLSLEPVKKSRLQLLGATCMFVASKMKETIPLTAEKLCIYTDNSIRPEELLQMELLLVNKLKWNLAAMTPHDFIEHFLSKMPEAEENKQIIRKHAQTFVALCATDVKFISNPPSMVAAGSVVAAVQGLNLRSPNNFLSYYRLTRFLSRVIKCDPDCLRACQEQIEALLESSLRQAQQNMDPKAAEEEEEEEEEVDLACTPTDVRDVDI
CDK1/cyclin B, sequence (P06493 whole entry, species assumed): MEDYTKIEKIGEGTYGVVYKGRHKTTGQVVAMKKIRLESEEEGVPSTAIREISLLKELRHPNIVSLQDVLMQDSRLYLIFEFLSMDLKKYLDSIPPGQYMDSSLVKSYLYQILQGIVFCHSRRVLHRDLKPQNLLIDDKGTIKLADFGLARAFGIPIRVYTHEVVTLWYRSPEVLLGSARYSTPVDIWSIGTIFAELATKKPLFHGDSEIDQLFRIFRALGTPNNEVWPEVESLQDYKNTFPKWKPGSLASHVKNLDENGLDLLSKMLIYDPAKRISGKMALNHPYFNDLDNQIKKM
CDK1/cyclin B, sequence (P14635 whole entry partner, species assumed): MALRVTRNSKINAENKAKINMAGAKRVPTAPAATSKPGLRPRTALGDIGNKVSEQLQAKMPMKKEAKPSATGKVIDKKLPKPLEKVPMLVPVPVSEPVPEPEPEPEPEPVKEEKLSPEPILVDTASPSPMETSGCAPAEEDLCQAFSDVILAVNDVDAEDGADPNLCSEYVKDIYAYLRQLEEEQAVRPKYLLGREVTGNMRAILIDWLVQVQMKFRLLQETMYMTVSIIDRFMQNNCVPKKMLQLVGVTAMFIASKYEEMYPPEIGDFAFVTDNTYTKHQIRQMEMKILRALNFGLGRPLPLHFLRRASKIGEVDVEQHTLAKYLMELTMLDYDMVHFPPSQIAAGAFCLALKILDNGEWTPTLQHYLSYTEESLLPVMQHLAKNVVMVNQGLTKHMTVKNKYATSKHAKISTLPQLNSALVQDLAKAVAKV

In the case of `CC(=O)N1C2CCC1CN(C(=O)c1ccc(Nc3ncc4cc(C(=O)N(C)C)n(C5CCCC5)c4n3)nc1)C2` [Example 27, 2-(5-(8-acetyl-3,8-diazabicyclo[3.2.1]octane-3-carbonyl)pyridin-2-ylamino)-7-cyclopentyl-N,N-dimethyl-7H-pyrrolo[2,3-d]pyrimidine-6-carboxamide], the half-inhibitory concentration (IC50) at CDK4/cyclin D1 (setting [2]) was 46 nM; in assay [1] (setting [3]) it was 201 nM; in assay [1] (setting [4]), 194 nM; at CDK1/cyclin B (setting [5]), > 15000 nM.

As for `CN(C)C(=O)c1cc2cnc(Nc3ccc(C(=O)N4C[C@@H]5C[C@H]4C[C@@H]5O)cn3)nc2n1C1CCCC1` [Example 30, 7-cyclopentyl-2-(5-((1S,4S,5S)-5-hydroxy-2-azabicyclo[2.2.1]heptane-2-carbonyl)pyridin-2-ylamino)-N,N-dimethyl-7H-pyrrolo[2,3-d]pyrimidine-6-carboxamide], the IC50 at CDK4/cyclin D1 (setting [2]) was 88 to 114 nM; in assay [1] (setting [3]), 344 to 582 nM; in assay [1] (setting [4]), 422 to 542 nM; on CDK1/cyclin B (setting [5]), > 15000 nM.

Take `CN(C)C(=O)c1cc2cnc(Nc3ccc(N4C[C@H]5CC[C@@H](CC4=O)N5)cn3)nc2n1C1CCCC1` [Example 123, 7-Cyclopentyl-2-[5-((1R,6S)-4-oxo-3,9-diaza-bicyclo[4.2.1]non-3-yl)-pyridin-2-ylamino]-7H-pyrrolo[2,3-d]pyrimidine-6-carboxylic acid dimethylamide]: the IC50 at CDK4/cyclin D1 (setting [2]) is 3 nM; in assay [1] (setting [6]), 8 to 99 nM; in assay [1] (setting [7]) it was 5 to 16 nM; at CDK1/cyclin B (setting [5]) it was 29300 nM.

For `CN(C)C(=O)c1cc2cnc(Nc3ccc(C(=O)N4CC5CCC(C4)N5)nn3)nc2n1C1CCCC1` [Example 38, 7-Cyclopentyl-2-[6-(3,8-diaza-bicyclo[3.2.1]octane-3-carbonyl)-pyridazin-3-ylamino]-7H-pyrrolo[2,3-d]pyrimidine-6-carboxylic acid dimethylamide], the IC50 is 45 to 84 nM against CDK4/cyclin D1, 139 to 783 nM in assay [1] (setting [6]), 75 to 259 nM in assay [1] (setting [7]) and > 15000 nM at CDK1/cyclin B (setting [8]).

Take `CN(C)C(=O)c1cc2cnc(Nc3ccc(C(=O)N4CC5CNCC5C4)cn3)nc2n1C1CCCC1` (centres unmarked) [Example 32, 7-cyclopentyl-N,N-dimethyl-2-(5-(octahydropyrrolo[3,4-c]pyrrole-2-carbonyl)pyridin-2-ylamino)-7H-pyrrolo[2,3-d]pyrimidine-6-carboxamide]: the IC50 at CDK4/cyclin D1 (setting [2]) is 15 to 21 nM; in assay [1] (setting [6]), 212 nM; in assay [1] (setting [7]) it was 131 nM; on CDK1/cyclin B (setting [5]) it was > 15000 nM.

Regarding `CN(C)C(=O)c1cc2cnc(Nc3ccc(C(=O)N4CC5CCC(C4)N5)nn3)nc2n1C1CCCC1` [Example 73, 7-Cyclopentyl-2-[6-(3,8-diaza-bicyclo[3.2.1]octane-3-carbonyl)-pyridazin-3-ylamino]-7H-pyrrolo[2,3-d]pyrimidine-6-carboxylic acid dimethylamide], the IC50 was 45 to 84 nM at CDK4/cyclin D1 (read-out: Biochemical CDK4 enzyme IC50, 0.3 nM CDK4/cyclin D1, 150 nM biotin-pRb (773-924), 3 μM ATP, 60 min at 22° C.); 139 to 783 nM in assay [1] (JeKo-1 cells, p-pRb % inhibition adjusted with total pRb levels, read-out: Normalized cellular ppRb inhibition IC50); 75 to 259 nM in assay [1] (JeKo-1 cells, p-pRb Ser780 ELISA, non-normalized, read-out: Cellular ppRb inhibition IC50); > 15000 nM at CDK1/cyclin B (setting [5]).

On to `CN(C)C(=O)c1cc2cnc(Nc3ccc(N4C(=O)CN5CCC4CC5)cn3)nc2n1C1CCCCCC1` [Example 97, 7-cycloheptyl-N,N-dimethyl-2-(5-(3-oxo-1,4-diazabicyclo[3.2.2]nonan-4-yl)pyridin-2-ylamino)-7H-pyrrolo[2,3-d]pyrimidine-6-carboxamide], for which the IC50 was 51 nM on CDK4/cyclin D1 (setting [2]); 66 nM in assay [1] (Homo sapiens, JeKo-1, read-out: Cellular ppRb inhibition IC50); 145 nM in assay [1] (Homo sapiens, JeKo-1, read-out: Normalized cellular ppRb inhibition IC50); > 15000 nM on CDK1/cyclin B (setting [8]).

On to `CN(C)C(=O)c1cc2cnc(Nc3ccc(C(=O)N4CC5CC5(N(C)C)C4)cn3)nc2n1C1CCCC1` (centres unmarked) [Example 17, 7-Cyclopentyl-2-[5-(1-dimethylamino-3-aza-bicyclo[3.1.0]hexane-3-carbonyl)-pyridin-2-ylamino]-7H-pyrrolo[2,3-d]pyrimidine-6-carboxylic acid dimethylamide], for which the IC50 at CDK4/cyclin D1 (setting [2]) is 65 nM; in assay [1] (setting [3]), 643 nM; in assay [1] (setting [4]) it was 281 nM; on CDK1/cyclin B (setting [5]) it was > 15000 nM.

For the molecule `CN(C)C(=O)c1cc2cnc(Nc3ccc(C(=O)N4[C@@H]5CNC[C@H]4COC5)cn3)nc2n1C1CCCC1` [Example 40, 2-(5-((1R,5S)-3-oxa-7,9-diazabicyclo[3.3.1]nonane-9-carbonyl)pyridin-2-ylamino)-7-cyclopentyl-N,N-dimethyl-7H-pyrrolo[2,3-d]pyrimidine-6-carboxamide], the IC50 on CDK4/cyclin D1 (setting [2]) was 36 to 52 nM; in assay [1] (setting [3]) it was 51 to 222 nM; in assay [1] (setting [4]), 40 to 99 nM; at CDK1/cyclin B (setting [5]), > 15000 nM.

Turning to `CN(C)C(=O)c1cc2cnc(Nc3ccc(C(=O)N4CCC5(CC4)CNC5)cn3)nc2n1C1CCCCCC1` [Example 5, 2-(5-(2,7-diazaspiro[3.5]nonane-7-carbonyl)pyridin-2-ylamino)-7-cycloheptyl-N,N-dimethyl-7H-pyrrolo[2,3-d]pyrimidine-6-carboxamide], the IC50 on CDK4/cyclin D1 (setting [2]) is 8 to 16 nM; in assay [1] (setting [3]), 117 nM; in assay [1] (setting [4]), 115 nM; at CDK1/cyclin B (setting [5]), > 15000 nM.

Turning to `CN(C)C(=O)c1cc2cnc(Nc3ccc(N4C[C@]5(CCCNCC5)OC4=O)cn3)nc2n1C1CCCC1` [Example 106, 7-Cyclopentyl-2-[5-((R)-2-oxo-1-oxa-3,8-diaza-spiro[4.6]undec-3-yl)-pyridin-2-ylamino]-7H-pyrrolo[2,3-d]pyrimidine-6-carboxylic acid dimethylamide], the IC50 on CDK4/cyclin D1 (setting [2]) is 15 nM; in assay [1] (setting [3]), 114 nM; in assay [1] (setting [4]), 70 nM; at CDK1/cyclin B (setting [5]) it was > 15000 nM.

Turning to `CN(C)C(=O)c1cc2cnc(Nc3ccc(N4CCN5CCCCC5C4=O)cn3)nc2n1C1CCCC1` (centres unmarked) [Example 99, 7-Cyclopentyl-2-[5-(1-oxo-octahydro-pyrido[1,2-a]pyrazin-2-yl)-pyridin-2-ylamino]-7H-pyrrolo[2,3-d]pyrimidine-6-carboxylic acid dimethylamide], the IC50 is 71 nM at CDK4/cyclin D1 (setting [2]), 618 nM in assay [1] (setting [6]), 463 nM in assay [1] (setting [7]) and > 15000 nM on CDK1/cyclin B (setting [5]).

As to `CN(C)C(=O)c1cc2cnc(Nc3ccc(C(=O)N4CC5CCC(C4)N5)cn3)nc2n1C1CCN(C(C)(C)C)CC1` [Example 57, 7-(1-tert-Butyl-piperidin-4-yl)-2-[5-(3,8-diaza-bicyclo[3.2.1]octane-3-carbonyl)-pyridin-2-ylamino]-7H-pyrrolo[2,3-d]pyrimidine-6-carboxylic acid dimethylamide], the IC50 on CDK4/cyclin D1 (setting [2]) was 1570 nM; in assay [1] (setting [3]) it was > 10000 nM; in assay [1] (setting [4]) it was > 10000 nM; at CDK1/cyclin B (setting [5]), > 15000 nM.

In the case of `CN(C)C(=O)c1cc2cnc(Nc3ccc(C(=O)N4CC5CC[C@@H](C4)N5)cn3)nc2n1[C@H]1C[C@@H]2CC[C@H]1C2` [Example 77, 7-(1S,2S,4R)-Bicyclo[2.2.1]hept-2-yl-2-[5-(3,8-diaza-bicyclo[3.2.1]octane-3-carbonyl)-pyridin-2-ylamino]-7H-pyrrolo[2,3-d]pyrimidine-6-carboxylic acid dimethylamide], the IC50 on CDK4/cyclin D1 (setting [2]) is 27 nM; in assay [1] (setting [6]), 225 nM; in assay [1] (setting [7]), 172 nM; against CDK1/cyclin B it was > 15000 nM.

For the molecule `CN(C)C(=O)c1cc2cnc(Nc3ccc(C(=O)N4C[C@@H]5CN[C@@H](C5)C4)cn3)nc2n1C1CCCC1` [Example 10, 7-Cyclopentyl-2-[5-((1S,5S)-3,6-diaza-bicyclo[3.2.1]octane-3-carbonyl)-pyridin-2-ylamino]-7H-pyrrolo[2,3-d]pyrimidine-6-carboxylic acid dimethylamide], the IC50 was 5 nM at CDK4/cyclin D1 (setting [2]), 25 nM in assay [1] (setting [6]), 21 nM in assay [1] (setting [7]) and 4140 nM on CDK1/cyclin B (setting [5]).

Turning to `CN(C)C(=O)c1cc2cnc(Nc3ccc(C(=O)N4C[C@@H]5[C@@H](N)[C@@H]5C4)cn3)nc2n1C1CCCC1` [Example 42, 2-[5-((1S,5R,6S)-6-Amino-3-aza-bicyclo[3.1.0]hexane-3-carbonyl)-pyridin-2-ylamino]-7-cyclopentyl-7H-pyrrolo[2,3-d]pyrimidine-6-carboxylic acid dimethylamide], the IC50 at CDK4/cyclin D1 (setting [2]) is 15 nM; in assay [1] (setting [3]), 241 nM; in assay [1] (setting [4]), 86 nM; at CDK1/cyclin B (setting [5]), > 15000 nM.

As for `CN(C)C(=O)c1cc2cnc(Nc3ccc(C(=O)N4CCC5COCC(C4)N5)cn3)nc2n1C1CCCC1` (centres unmarked) [Example 75, 7-Cyclopentyl-2-[5-(8-oxa-3,10-diaza-bicyclo[4.3.1]decane-3-carbonyl)-pyridin-2-ylamino]-7H-pyrrolo[2,3-d]pyrimidine-6-carboxylic acid dimethylamide], the IC50 against CDK4/cyclin D1 is 47 nM; in assay [1] (setting [6]), 525 nM; in assay [1] (setting [7]) it was 81 nM; against CDK1/cyclin B it was > 15000 nM.
